The target of experiment [1] is T1, complex I (Homo sapiens, UniProt P19404+P28331+P49821). Nature of the experiment: Complex I driven respiration in SH-SY5Y cells. It counts as cell-based. The note with it: for % Inhibition - complex I: 5 × 1O^−5 M; for % Inhibition - complex I / inhibition at 100 µM: means ± SD of 4-6 detections; for inhibition at 100 µM: 10^−4 M. Set-up: endogenous in cells; host or cells: SH-SY5Y. From the text:
(§1) The effect of antipsychotic drugs on respiration in SH-SY5Y cells was studied.

The target in experiment [2] is T2, complex II (Homo sapiens, UniProt O14521+P21912+P31040+Q99643). Nature of the experiment: Complex II driven respiration in SH-SY5Y cells. The format is cell-based. The note with it: for inhibition at 50 µM: 5 × 10^−5 M; for inhibition at 50 µM / inhibition at 100 µM: means ± SD of 4-6 detections; for inhibition at 100 µM: 10^−4 M. Set-up: endogenous in cells; host or cells: SH-SY5Y.
T2 sequence (P31040 43-664): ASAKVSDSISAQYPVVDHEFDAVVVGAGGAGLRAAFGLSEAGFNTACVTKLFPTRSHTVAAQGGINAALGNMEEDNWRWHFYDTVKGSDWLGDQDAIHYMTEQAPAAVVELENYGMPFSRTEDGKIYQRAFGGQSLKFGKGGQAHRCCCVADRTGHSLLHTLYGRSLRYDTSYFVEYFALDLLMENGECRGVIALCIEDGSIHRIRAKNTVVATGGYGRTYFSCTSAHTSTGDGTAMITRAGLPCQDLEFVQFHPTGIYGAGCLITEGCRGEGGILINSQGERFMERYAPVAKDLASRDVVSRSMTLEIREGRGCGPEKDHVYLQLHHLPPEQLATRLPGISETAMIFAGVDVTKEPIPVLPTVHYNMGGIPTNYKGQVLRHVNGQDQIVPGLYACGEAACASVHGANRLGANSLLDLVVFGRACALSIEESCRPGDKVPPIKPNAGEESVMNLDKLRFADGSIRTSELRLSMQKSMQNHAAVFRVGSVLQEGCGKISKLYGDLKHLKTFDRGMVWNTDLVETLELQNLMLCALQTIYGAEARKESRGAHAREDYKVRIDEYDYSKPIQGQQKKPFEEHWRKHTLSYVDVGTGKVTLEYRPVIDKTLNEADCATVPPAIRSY
T2 sequence (P21912 29-280): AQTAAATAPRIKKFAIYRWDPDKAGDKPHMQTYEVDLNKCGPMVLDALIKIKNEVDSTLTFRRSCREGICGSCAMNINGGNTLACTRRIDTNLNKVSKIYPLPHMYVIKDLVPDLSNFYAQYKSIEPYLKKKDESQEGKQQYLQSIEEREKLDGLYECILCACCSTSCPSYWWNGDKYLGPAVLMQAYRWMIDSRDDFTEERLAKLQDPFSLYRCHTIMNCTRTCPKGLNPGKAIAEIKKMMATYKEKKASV
T2 sequence (Q99643 30-169): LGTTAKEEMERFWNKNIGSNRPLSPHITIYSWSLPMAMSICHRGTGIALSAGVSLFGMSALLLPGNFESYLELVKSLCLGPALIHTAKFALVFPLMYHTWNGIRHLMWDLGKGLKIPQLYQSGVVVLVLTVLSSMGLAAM
T2 sequence (O14521 57-159): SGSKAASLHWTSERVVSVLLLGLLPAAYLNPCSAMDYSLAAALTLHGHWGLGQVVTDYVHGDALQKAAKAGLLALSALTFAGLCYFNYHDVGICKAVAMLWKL
Excerpt: as §1

Experiment [3] deals with T1, complex I. The note with it: permeabilized cells, 37° C., 10 minutes of incubation; means±SD of 3 experiments. The protocol: (§2) Respiration rate was determined polarographically using a thermostatically controlled (37° C.) Clark oxygen electrode after 10 minutes of incubation. Respiration rates for each enzyme of the respiratory chain were assessed after the permeabilization of cellular membrane, with 0.001% digitonin followed by the addition of the following substrates and inhibitors: […] plus malate for complex I induced respiration; succinate, in the presence of rotenone and ATP for complex II induced respiration, and glycerol-3-phosphate, in the presence of rotenone. […] Results are means±SD of 3 experiments.

The target in experiment [4] is T2, complex II. The note with it: succinate in the presence of rotenone and ATP. The protocol:
as §2

A further experiment has as its target complex III (Homo sapiens, UniProt P00156+P08574+P47985). The note with it: glycerol-3-phosphate in the presence of rotenone, ATP and malonate. As to the method: as §2
For experiment [5], the system named is EBV transformed lymphocytes. The protocol:
Lymphocytes were isolated on Ficol and were centrifugated at 270 g for 10 minutes, the cell pellet was infected with 1 ml EBV at 37° C. for 1 h. The sample was then centrifuged at 270 g for 10 minutes to remove the EBV. The infected lymphocytes were-suspended in 5 ml of RPMI 1640 with 20% (v/v) FBS and 1% phytohemagglutinin (PHA) and incubated in a culture flask with culture medium replaced twice a week. Immortalized lymphocytes were then cryopreserved until use in liquid nitrogen.
Respiration was measured polarographically using a thermostatically controlled (37° C.) Clark oxygen electrode after 10 minutes of incubation. The respiration rates were assessed after the permeabilization of cellular membrane with 0.001% digitonin and the addition of glutamate+malate

Experiment [6] concerns the target T3, mitochondrial complex I (NADH ferricyanide reductase) (Homo sapiens, UniProt P19404+P28331+P49821).
T3 construct: an enriched mitochondrial fraction was isolated on percoll as described previously; from tissue; host or cells: mitochondria-enriched fraction of blood platelets, disrupted by freeze-thaw or digitonin
Kind of experiment: Dopamine inhibition of NADH-ferricyanide reductase (complex I) activity in platelet mitochondria. It counts as biochemical. The note with it: platelet mitochondrial preparation.
Protocol: NADH ferricyanide reductase activity was determined at Vmax ferricyanide throughout the study with or without antimycin A (Singer, 1974). […] The reaction was started by the addition of 0.1 mM potassium ferricyanide and 0.14 mM NADH with and without 10 μg antimycin A. The decrease in NADH absorbance was followed at 340 nm for 1 min with a 3 sec interval between successive readings and 1 sec initial delay.

The target of experiment [7] is T4, NADH CoQ reductase (complex I) (Homo sapiens, UniProt P19404+P28331+P49821).
T4 construct: an enriched mitochondrial fraction was isolated on percoll as described previously; from tissue; host or cells: mitochondria-enriched fraction of blood platelets, disrupted by freeze-thaw or digitonin
T4 sequence (P28331 24-727): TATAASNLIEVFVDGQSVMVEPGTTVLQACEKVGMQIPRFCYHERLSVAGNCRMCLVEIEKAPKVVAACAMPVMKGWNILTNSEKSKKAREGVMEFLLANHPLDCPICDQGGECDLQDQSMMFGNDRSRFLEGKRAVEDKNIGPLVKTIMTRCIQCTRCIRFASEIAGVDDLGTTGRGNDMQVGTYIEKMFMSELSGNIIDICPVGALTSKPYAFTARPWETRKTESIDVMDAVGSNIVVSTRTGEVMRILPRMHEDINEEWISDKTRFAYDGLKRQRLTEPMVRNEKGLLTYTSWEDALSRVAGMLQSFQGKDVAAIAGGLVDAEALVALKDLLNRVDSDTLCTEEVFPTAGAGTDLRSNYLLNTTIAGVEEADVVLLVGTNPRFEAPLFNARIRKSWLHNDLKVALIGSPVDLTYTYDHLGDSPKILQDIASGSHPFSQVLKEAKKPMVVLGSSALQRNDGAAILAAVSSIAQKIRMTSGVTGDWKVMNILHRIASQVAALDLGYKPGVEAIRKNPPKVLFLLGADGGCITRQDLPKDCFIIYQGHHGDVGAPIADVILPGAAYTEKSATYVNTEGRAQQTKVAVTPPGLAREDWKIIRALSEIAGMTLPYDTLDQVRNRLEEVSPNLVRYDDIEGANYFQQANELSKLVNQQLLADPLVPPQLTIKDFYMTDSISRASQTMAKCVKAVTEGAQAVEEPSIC
T4 sequence (P49821 21-464): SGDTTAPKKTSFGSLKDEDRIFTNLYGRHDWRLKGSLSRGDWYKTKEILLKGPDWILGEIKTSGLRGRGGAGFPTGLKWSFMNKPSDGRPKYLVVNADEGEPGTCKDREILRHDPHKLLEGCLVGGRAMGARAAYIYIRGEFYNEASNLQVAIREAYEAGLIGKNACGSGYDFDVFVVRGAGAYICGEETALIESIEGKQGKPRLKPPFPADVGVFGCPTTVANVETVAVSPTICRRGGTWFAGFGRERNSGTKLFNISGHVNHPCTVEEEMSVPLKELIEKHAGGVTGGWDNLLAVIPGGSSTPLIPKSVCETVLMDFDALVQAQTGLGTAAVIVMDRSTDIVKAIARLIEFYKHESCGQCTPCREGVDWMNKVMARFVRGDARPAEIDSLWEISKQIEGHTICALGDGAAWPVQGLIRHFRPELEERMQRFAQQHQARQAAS
T4 sequence (P19404 33-249): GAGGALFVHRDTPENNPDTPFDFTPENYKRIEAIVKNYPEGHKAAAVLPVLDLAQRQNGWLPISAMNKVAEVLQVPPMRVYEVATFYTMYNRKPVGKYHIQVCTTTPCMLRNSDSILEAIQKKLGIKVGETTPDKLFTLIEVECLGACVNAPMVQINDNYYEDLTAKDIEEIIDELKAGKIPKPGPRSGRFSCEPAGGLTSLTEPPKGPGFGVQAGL
Kind of experiment: NADH-CoQ reductase activity in platelet mitochondria. The format is biochemical. The following applies: 10 μM rotenone; read-out: Residual activity of NADH CoQ reductase in the presence of rotenone. The protocol:
Blood (40-80 ml) was collected from the cubital vein without tourniquet between 8:00 and 10:00 a.m., mixed 9:1 with 3.8% (w/v) tri-sodium citrate, and platelet-rich plasma (PRP) separated at room temperature by centrifugation at 200×g for 20 min. Platelets were isolated and washed with Tyrode's buffer pH 7.4 containing 1 mM EDTA as described previously (Krige et al., 1992). The platelet pellet was gently resuspended in ice cold 10 mM Tris buffer pH 7.4 containing 250 mM sucrose and 1 mM EDTA and disrupted by a Dounce A homogenizer (20-30 strokes). The breakdown of the platelets was verified by light microscopy. The homogenate was centrifuged at 1000×g at 4° C. for 20 min to remove unbroken cells. The supernatant, containing the cytoplasmic extract was centrifuged at 12,000×g at 4° C. For 15 min and an enriched mitochondrial fraction was isolated on percoll as described previously (Ben-Shachar et al., 1995; Gavin et al., 1990; McComark and Denton, 1989). […] The final preparation was immediately stored at −70° C. until use.
Mitochondrial respiratory chain enzymes activity was assayed blindly and in triplicate after two cycles of freezing and thawing in a final volume of 1 ml at 25° C. by standard techniques. […]
Results from both assays for each sample are expressed as the difference between reductases activities in the absence and the presence of the relevant inhibitors.

Where two headings read alike, the source gives them in different places.

T1 sequence (P49821 21-464): as the sequence (P49821 21-464) above
T1 sequence (P19404 33-249): as the sequence (P19404 33-249) above
T1 sequence (P28331 24-727): as the sequence (P28331 24-727) above
T3 sequence (P49821 21-464): as the sequence (P49821 21-464) above
T3 sequence (P19404 33-249): as the sequence (P19404 33-249) above
T3 sequence (P28331 24-727): as the sequence (P28331 24-727) above

As a reminder, the inhibition is the relative decrease from the control value, in per cent. Low readings indicate little suppression, high ones strong suppression. As to `CNCCC(Oc1ccc(C(F)(F)F)cc1)c1ccccc1` (centres unmarked) [Fluoxetine], at complex I [1], the “% Inhibition - complex I” value amounted to 15.7 ± 25.5% and the inhibition at 100 µM is 29.2 ± 22.7%. For the same compound, on complex II [2], the inhibition at 50 µM came to 15 ± 9.2% and at 100 µM the inhibition was 25.3 ± 0.2%.
Consider `CN(C)CCCN1c2ccccc2Sc2ccc(Cl)cc21` [Chlorpromazine], for which, on complex I [1], the “Effect on complex I driven mitochondrial respiration (in words)” value is recorded as “specifically inhibit complex I driven mitochondrial respiration”, the “% Inhibition - complex I” value stood at 20.9 ± 18.1 % and the inhibition at 100 µM came out at 43.8 ± 17.3%. Also, on complex II [2], the “Effect on respiration through complex II (in words)” value was “no effect”, at 50 µM the inhibition was 6.6 ± 3.5% and the inhibition at 100 µM amounted to 14.9 ± 2.1%.
Turning to `NCCc1ccc(O)c(O)c1` [Dopamine], the “Inhibition of respiration through complex I” value at complex I [3] was 33.3±0.07%. Further, the “Inhibition of respiration through complex II” value at complex II [4] is listed as “not through complex II”. Besides, the “Inhibition of respiration through complex III” value on complex III is “not through complex II and III”. In experiment [5] (EBV transformed lymphocytes), the “Inhibition by DA in schizophrenic patients relative to control subjects” value was “higher by two fold”. Moreover, the “Inhibition of respiration by DA” value in experiment [5] (lymphoblasts of control subjects (n=7)) was 11.4±7.2%; in experiment [5] (lymphoblasts of schizophrenic patients (n=7)) it was 26.8±8.6%.
Regarding `CN1CCN(C2=Nc3cc(Cl)ccc3Nc3ccccc32)CC1` [Clozapine], at complex I [1], the “% Inhibition - complex I” value was 31.2 ± 5.6 % and testing at 100 µM gave an inhibition of 39.9 ± 20.8%. At complex II [2], testing at 50 µM gave an inhibition of 10.9 ± 1.6% and 100 µM produced 2.6 ± 2.4% inhibition.
For `O=C(CCCN1CCC(O)(c2ccc(Cl)cc2)CC1)c1ccc(F)cc1` [Haloperidol], at complex I [1], the “Effect on complex I driven mitochondrial respiration (in words)” value is on record as “specifically inhibit complex I driven mitochondrial respiration”, the “% Inhibition - complex I” value came out at 27.2 ± 4.7 % and the inhibition at 100 µM came out at 47.6 ± 10%. Moreover, at complex II [2], the “Effect on respiration through complex II (in words)” value is reported as “no effect”, the inhibition at 50 µM came to 0.7 ± 0.7% and the inhibition at 100 µM stood at 2.9 ± 1.8%.
For `CN(C)CCCN1c2ccccc2CCc2ccc(Cl)cc21` [Anafranil], on complex I [1], the “% Inhibition - complex I” value amounted to 13.0 ± 11.0% and the inhibition at 100 µM was 32.1 ± 8.8%. At complex II [2], the inhibition at 50 µM worked out at 11 ± 1.2% and testing at 100 µM gave an inhibition of 22.1 ± 18%.
Turning to `C=C(C)[C@H]1Cc2c(ccc3c2O[C@@H]2COc4cc(OC)c(OC)cc4[C@@H]2C3=O)O1` [rotenone], the “Effect on NADH ferricyanide reductase activity” value in experiment [6] is recorded as “no effect”. Moreover, the remaining activity at 10 µM in experiment [7] lay within 5 to 15%.

(Values after patent US8420308B2, “Methods and kits for diagnosis of schizophrenia” (Technion R&D Foundation Ltd., priority 2000, dated 2013).)
